Assay results as given in patent publication US9605023B2, “Application of SP peptide or derivative thereof in preparing medicines for preventing or treating asthma” (priority 2012, dated 2017).
Where no end group is shown, it is not given here.

Key:
[1] = test system: allergic asthma mouse model; assay: Histopathologic examination and lesion score of lung tissues of allergic asthma mice induced by ovalbumin and aluminium hydroxide; type: in vivo
Protocol: (§1) ICR mice, half male and half female, are divided randomly into 9 groups with each group having 10 mice, that is:
(§2) 3) positive medicines group (administer an equal volume of dexamethasone injection solution with the model group, having the dosage of 0.9 μg/kg·d);
(§3) All dosage groups of the SP peptide are administered by subcutaneous injection with a 0.1 ml SP peptide solution per 10 g weight of a mouse, the blank control group uses the same amount of physiological saline (0.1 ml physiological saline per 10 g weight of a mouse), and the positive medicines group is administered by intraperitoneal injection with 0.1 ml positive medicines per 10 g weight of a mouse.
(§4) Preparation of sensitized liquid: prepare in a proportion of dissolving 10 ug ovalbumin and 2 mg aluminium hydroxide in 0.5 ml physiological saline, and use it right after being prepared.
(§5) On day 1, day 7 and day 14, the mice of all groups (the model group, the preventive administration groups, the treatment administration groups, and the positive medicines group) apart from the blank control group are injected intraperitoneally with 0.5 ml freshly prepared sensitized liquid. The blank control group is injected intraperitoneally with an equal volume of physiological saline.
(§6) Since day 21 (i.e., starting from week 4), the mice of all groups apart from the blank control group are placed in a 16 L closed container every fourth days, make the mice inhale 1 wt % ovalbumin physiological saline by ultrasonic nebulization, with an inhalation duration of 25 min/d and a nebulization flow rate of 3 ml/min, for twice a week to induce asthma, and the process continues until week 19. The mice in the blank control group undergo nebulization […] with an equal volume of physiological saline.
(§7) Particularly, the preventive administration group (the SP peptide high-dosage preventive administration group, SP peptide medium-dosage preventive administration group, and SP peptide low-dosage preventive administration group) are injected subcutaneously a corresponding dosage of SP peptide at right hindlimb of the mouse, one hour after the first intraperitoneal injection of the sensitized liquid (i.e., from day 1), and are administered every other day for 15 times in total.
(§8) From the same day, the mice in the treatment administration groups (SP high-dosage treatment administration group, SP medium-dosage treatment administration group, and SP low-dosage treatment administration group) are injected subcutaneously with a corresponding dosage of SP peptide at right hindlimb thereof, and are administered every other day for 15 times in total. From the same day, the mice in the positive medicines group are injected intraperitoneally with 0.1 ml dexamethasone injection per 10 g weight of a mouse, and are administered every other day for 15 times in total.
Lung tissue lesions (including bronchia and perivascular interstitial edema, alveolar wall congestion or emphysema) are marked respectively as 1, 2, 3 and 4 in ascending order of severity, 0 stands for no obvious lesions, and 0.5 for extreme mild lesions. All scores are accumulated, and a mean score (±SD) of each mouse in each group is calculated, and a higher score indicates a more severe level of lesions. Perform a rank-sum test to pathological score results to compare the two samples, and compare with the model group.
2.2 Data Processing: perform data processing to all data, rank-sum test to pathological score, t-test to the other data, and make statistics to analytic results.

TNF-α = details: pneumonia; recorded in CN101822816A; cited from earlier work
IL-4 = IL-4 level (ELISA) in serum and lung tissue homogenates of allergic asthma mice induced by ovalbumin and aluminium hydroxide; type: in vivo, mouse
Protocol: as §1, §2
(§9) 4) SP peptide high-dosage preventive administration group, 5) SP peptide medium-dosage preventive administration group, and 6) SP peptide low-dosage preventive administration group (administer ovalbumin and aluminium hydroxide, and the SP peptides with a respective dosage of 250 μg/kg·d, 125 μg/kg·d and 62.5 μg/kg·d prepared into an SP peptide solution of a desired concentration with physiological saline).
(§10) 7) SP peptide high-dosage treatment administrative group, 8) SP peptide medium-dosage treatment administration group, and 9) SP peptide low-dosage treatment administration group (administer ovalbumin and aluminium hydroxide, and the SP peptides with a respective dosage of 250 μg/kg·d, 125 μg/kg·d and 62.5 μg/kg·d prepared into an SP peptide solution of a desired concentration with physiological saline).
as §3, §4, §5, §6, §7, §8
(§11) As for the determination of the experimental result, all mice are killed to obtain blood by picking off their eyeballs 6 hours after the final nebulization inhalation (week 19), and serum is collected and stored at −70° C. until needed. […]

r-IFN, IL-4 and IL-10 = details: disclosed in CN1194986C and CN1216075C; cited from earlier work
IL-13 [2] = assay: IL-13 level (ELISA) in serum and lung tissue homogenates of allergic asthma mice induced by ovalbumin and aluminium hydroxide; type: in vivo, mouse; details: compared to model group
IL-13 [3] = assay: as above; type: in vivo, mouse; details: for IL-13 level in serums / IL-13 level in lung tissue homogenates: compared to model group
Protocol: as §1, §2, §9, §10, §3, §4, §5, §6, §7, §8, §11

[4] = positive drug group, dexamethasone 0.9 μg/kg·d i.p. every other day x15 from week 15, FIG. 6
[5] = SP peptide high-dosage preventive administration group, 250 μg/kg·d s.c., FIG. 9
[6] = SP peptide high-dosage treatment administration group, 250 μg/kg·d s.c., FIG. 12
[7] = SP peptide low-dosage preventive administration group, 62.5 μg/kg·d s.c., FIG. 7
[8] = SP peptide low-dosage treatment administration group, 62.5 μg/kg·d s.c., FIG. 10
[9] = SP peptide medium-dosage preventive administration group, 125 μg/kg·d s.c., FIG. 8
[10] = SP peptide medium-dosage treatment administration group, 125 μg/kg·d s.c., FIG. 11
[11] = all SP peptide high-/medium-/low-dosage preventive and treatment administration groups, compared to the model group (summary statement)

Compound: C[C@@H]1C[C@H]2[C@@H]3CCC4=CC(=O)C=C[C@]4(C)[C@@]3(F)[C@@H](O)C[C@]2(C)[C@@]1(O)C(=O)CO [positive drug, dexamethasone, reference compound]
- inflammatory cells infiltration (lung tissue section) [1, 4]: infiltration with a few inflammatory cells
- pulmonary interstitial edema (lung tissue section) [1, 4]: mild pulmonary interstitial edema

Compound: GQTYTSG
- overall score of lung tissue lesion level, difference compared to the model group (rank-sum test) ([1]; SP peptide high-dosage preventive administration group, 250 μg/kg·d s.c., ** P<0.01, FIG. 3): highly significant differences
- inflammatory cells infiltration (lung tissue section) [1, 5]: infiltration with a few inflammatory cells around bronchus
- pulmonary interstitial edema (lung tissue section) [1, 5]: mild pulmonary interstitial edema
- overall score of lung tissue lesion level, difference compared to the model group (rank-sum test) ([1]; SP peptide high-dosage treatment administration group, 250 μg/kg·d s.c., ** P<0.01, FIG. 3): highly significant differences
- inflammatory cells infiltration (lung tissue section) [1, 6]: infiltration with a few inflammatory cells
- pulmonary interstitial edema (lung tissue section) [1, 6]: mild pulmonary interstitial edema
- overall score of lung tissue lesion level, difference compared to the model group (rank-sum test) ([1]; SP peptide low-dosage preventive administration group, 62.5 μg/kg·d s.c., * P<0.05, FIG. 3): significant differences
- inflammatory cells infiltration (lung tissue section) [1, 7]: infiltration with greater inflammatory cells
- pulmonary interstitial edema (lung tissue section) [1, 7]: moderate or severe pulmonary interstitial edema
- overall score of lung tissue lesion level, difference compared to the model group (rank-sum test) ([1]; SP peptide low-dosage treatment administration group, 62.5 μg/kg·d s.c., * P<0.05, FIG. 3): significant differences
- inflammatory cells infiltration (lung tissue section) [1, 8]: infiltration with greater inflammatory cells
- pulmonary interstitial edema (lung tissue section) [1, 8]: moderate intrapulmonary small perivascular and peribronchial pulmonary interstitial edema
- overall score of lung tissue lesion level, difference compared to the model group (rank-sum test) ([1]; SP peptide medium-dosage preventive administration group, 125 μg/kg·d s.c., * P<0.05, FIG. 3): significant differences
- inflammatory cells infiltration (lung tissue section) [1, 9]: infiltration with a few inflammatory cells
- pulmonary interstitial edema (lung tissue section) [1, 9]: moderate or mild pulmonary interstitial edema
- overall score of lung tissue lesion level, difference compared to the model group (rank-sum test) ([1]; SP peptide medium-dosage treatment administration group, 125 μg/kg·d s.c., ** P<0.01, FIG. 3): highly significant differences
- alveolar wall congestion or emphysema (lung tissue section) [1, 10]: congestion around alveolar walls, alveoli are in an emphysematous state
- inflammatory cells infiltration (lung tissue section) [1, 10]: infiltration with many inflammatory cells
- pulmonary interstitial edema (lung tissue section) [1, 10]: mild intrapulmonary small perivascular and peribronchial pulmonary interstitial edema
- bronchia and perivascular interstitial edema, edematous inflammatory cells infiltration, alveolar wall congestion or emphysema ([1]; after administering SP peptide for prevention or treatment, histopathologic test, FIG. 3): significantly reduced
- lung tissue lesion level [1, 11]: significantly alleviated
- asthma modelling by pathological check on day 1 of week 15 ([1]; five mice drawn from each group, preventive administration groups (SP peptide 250, 125, 62.5 μg/kg·d s.c. from day 1, x15)): all asthma groups apart from the preventive administration groups are successfully modeled
- TNF-α level (TNF-α): reducing TNF-α level
- IL-4 level (IL-4; SP peptide high-dosage preventive administration group, 250 μg/kg·d s.c., compared to model group): significantly decreased
- IL-4 level (IL-4; SP peptide high-dosage treatment administration group, 250 μg/kg·d s.c., compared to model group): significantly decreased
- IL-4 level (IL-4; SP peptide low-dosage treatment administration group, 62.5 μg/kg·d s.c., compared to model group): significantly decreased
- IL-4 level (IL-4; SP peptide medium-dosage preventive administration group, 125 μg/kg·d s.c., compared to model group): significantly decreased
- IL-4 level (IL-4; SP peptide medium-dosage treatment administration group, 125 μg/kg·d s.c., compared to model group): significantly decreased
- IL-4 level (IL-4; [11]): significantly reduced
- level of cytokines r-IFN, IL-4 and IL-10 (r-IFN, IL-4 and IL-10): increased level
- IL-13 level in serums (IL-13 [2]; SP peptide high-dosage treatment administration group, 250 μg/kg·d s.c. every other day x15 from week 15): significantly decreased
- IL-13 level in serums (IL-13 [2]; SP peptide low-dosage treatment administration group, 62.5 μg/kg·d s.c. every other day x15 from week 15): significantly decreased
- IL-13 level in serums (IL-13 [2]; SP peptide medium-dosage treatment administration group, 125 μg/kg·d s.c. every other day x15 from week 15): significantly decreased
- IL-13 level in serums (IL-13 [3]; SP peptide high-dosage preventive administration group, 250 μg/kg·d s.c. every other day x15 from day 1): significantly decreased
- IL-13 level in lung tissue homogenates (IL-13 [3]; SP peptide high-dosage preventive administration group, 250 μg/kg·d s.c.): significantly decreased
- IL-13 level in lung tissue homogenates (IL-13 [3]; SP peptide high-dosage treatment administration group, 250 μg/kg·d s.c.): significantly decreased
- IL-13 level in lung tissue homogenates (IL-13 [3]; SP peptide low-dosage treatment administration group, 62.5 μg/kg·d s.c.): significantly decreased
- IL-13 level in serums (IL-13 [3]; SP peptide medium-dosage preventive administration group, 125 μg/kg·d s.c. every other day x15 from day 1): significantly decreased
- IL-13 level in lung tissue homogenates (IL-13 [3]; SP peptide medium-dosage preventive administration group, 125 μg/kg·d s.c.): significantly decreased
- IL-13 level in lung tissue homogenates (IL-13 [3]; SP peptide medium-dosage treatment administration group, 125 μg/kg·d s.c.): significantly decreased
- IL-13 level (IL-13 [3]; [11]): significantly reduced
